Assay results taken from US20260285830A1, “CRYSTALLINE METHIONINE ADENOSYLTRANSFERASE 2a (MAT2A) INHIBITOR AND USES THEREOF” (Insilico Medicine IP Limited, priority 2023, published 2026).
Structures can show the parent of a compound that is named as a salt.

Tests used:
[1] = Stability of 1 mg capsules (total impurity); type: physicochemical; details: 1 mg capsules in aluminum blister foils
Method: Compound 1 freebase Type A or Compound 1 maleate salt Type A was sieved with 40 mesh sieves, followed by mixing with the same amount of diluent, disintegrant and lubricant to prepare 1000 capsules. The strength of these capsules is 1 mg, and the capsules are packaged in aluminum blister foils. The stability of 1 mg capsules was investigated at 40° C./75% RH and 60° C., and the results were in Table 26.

[2] = Hygroscopicity evaluation (DVS); type: physicochemical; details: for hygroscopicity (in words): DVS at 25 °C, water uptake up to 80% RH; for water uptake up to 80% RH: DVS isotherm at 25 °C between 0% RH and 95% RH
Method: Compound 1 Freebase Type A/B/C, Compound 1 maleate salt Type A, and Compound 1 citrate salt Type A were evaluated for hygroscopicity. DVS isotherm plots were collected at 25 ? between 0% RH and 95% RH.

[3] = Pharmacokinetics in male Sprague Dawley rats, intravenous injection; type: in vivo; details: rat, plasma, 1 mg/kg; male SD rats, n=3, intravenous injection, 0.2 mg/mL, 5 mL/kg
Method: Test compounds was dissolved in 5% DMSO+95% (10% HP-β-CD in Saline) to a concentration of 0.2 mg/mL and given to SD rats (Male, n=3) by intravenous injection (5 mL/kg). Blood samples were collected at 0.083 h, 0.25, 0.5, 1, 2, 4, 8, and 24 h after injection (anticoagulant:K2-EDTA). These tubes were kept in an ice bath prior to centrifugation at approximately 6800 g for 6 minutes at approximately 5° C. Samples were analyzed for the presence of the test compound with an TQ5500 mass spectrometer (AB Sciex) coupled to an ACQUITY UPLC BEH C18 (1.7 μm, 2.1 mm×50 mm) HPLC column. Gradient elution was applied consisting of ultrapure water containing 0.1% formic acid and acetonitrile containing 0.1% formic acid. Standard set of parameters including Area Under the Curve (AUC (0-t) and […]), elimination half-live (T1/2), maximum plasma concentration (Cmax), time to reach maximum plasma concentration (Tmax) will be calculated using non-compartmental analysis modules in Phoenix WinNonlin 7.0 (Pharsight, USA).

HCT116 MTAP+/+ = test: Inhibition of cellular proliferation (Cell Titer Glo), HCT116 WT (MTAP+/+); type: cell-based; details: Homo sapiens, HCT-116, 120 h, 5 days treatment
Method: (§1) Test compound impact on cancer cell growth was assessed by treating cancer cells with compound for 5 days and then measuring proliferation using an ATP-based cell proliferation readout (Cell Titer Glo, Promega Corporation).
(§2) In a typical assay an isogenic pair of HCT116 human colon carcinoma cell lines which vary only in MTAP deletion status (HCT116 MTAP+/+ and HCT116 MTAP−/−) were plated in 96-well dishes at appropriate cell density. Following 24 hours, cells were then treated with the candidate MAT2A inhibitor. Prior to addition to cells, the compound was first serially diluted in DMSO, typically as a 3-fold serial dilution with 9 dose points.
(§3) Compound was then transferred to a working stock plate in cell culture media by adding 3 μl of compound in DMSO to 297 μl of cell culture media. […]
(§4) To measure inhibition of cellular proliferation, cells were allowed to equilibrate to room temperature for 30 minutes, and were then treated with 40 μl of Cell Titer Glo reagent. […] Luminescent signal of the Cell Titer Glo reagent was then measured using a plate-based luminometer and normalized via an ATP standard curve. This luminescence measure was converted to a proliferation index by subtracting from each datapoint the ATP luminescence measured from a control cell plate that was measured at the time of compound treatment. […]

HCT116 MTAP−/− = test: Inhibition of cellular proliferation (Cell Titer Glo), HCT116 MTAP-/-; type: cell-based; details: Homo sapiens, HCT-116, 120 h, 5 days treatment
Method: as §1, §2, §3, §4

[4] = Kinetic solubility evaluation; type: physicochemical; details: H2O, SGF and FaSSIF, 37 °C, solid loading ~10 mg/mL (calculated as freebase)
Method: Kinetic solubility of Compound 1 Freebase Type A, Compound 1 maleate salt Type A, and Compound 1 citrate salt Type A were measured in water, SGF (Simulated Gastric Fluid), FaSSIF (Fasted State Simulated Intestinal Fluid) and FeSSIF (Fed State Simulated Intestinal Fluid) at 37 ? with solid loading of ~10 mg/mL (calculated as freebase). The results are presented in FIG. 59A, FIG. 59B, FIG. 59C, and FIG. 59D.

With `C#CCNc1nc(=O)n(-c2cccnc2C)c2cc(C(F)(F)F)cc(OC)c12` [Compound 1 Freebase Type A, 5-methoxy-1-(2-methylpyridin-3-yl)-4-(prop-2-yn-1-ylamino)-7-(trifluoromethyl) quinazolin-2 (1H)-one] as the molecule, how does the Total impurity ([1]; 40° C./75% RH, 0 d, listed as Free form Type A) read?
The Total impurity was 0.21%.

And the Total impurity ([1]; 40° C./75% RH, 10 d, listed as Free form Type A)?
Its Total impurity is 0.95%.

And the Total impurity ([1]; 60° C., 0 d, listed as Free form Type A)?
The Total impurity was 0.21%.

And the Total impurity ([1]; 60° C., 5 d, listed as Free form Type A)?
The Total impurity was 4.4%.

What about the Total impurity ([1]; 60° C., 10 d) of the same molecule?
Its Total impurity is 8.04%.

What about the “hygroscopicity (in words)” value [2] of the same molecule?
Its value is “slightly hygroscopic”.

What about the “water uptake up to 80% RH” value [2] of the same molecule?
Its value is ~ 0.3%.

And the clearance [3]?
The clearance was 0.17 mL/min/kg.

And the IC50 (HCT116 MTAP+/+)?
The IC50 was 21 µM.

What about the IC50 (HCT116 MTAP−/−) of the same molecule?
The IC50 was 0.198 µM.

Which “water uptake up to 80% RH” value [2] does the source give for `C#CCNc1nc(=O)n(-c2cccnc2C)c2cc(C(F)(F)F)cc(OC)c12` [Compound 1 Freebase Type B, 5-methoxy-1-(2-methylpyridin-3-yl)-4-(prop-2-yn-1-ylamino)-7-(trifluoromethyl) quinazolin-2 (1H)-one] here?
The value was ~ 11.6%.

Which “water uptake up to 80% RH” value [2] does the source give for `C#CCNc1nc(=O)n(-c2cccnc2C)c2cc(C(F)(F)F)cc(OC)c12` [Compound 1 Freebase Type C, 5-methoxy-1-(2-methylpyridin-3-yl)-4-(prop-2-yn-1-ylamino)-7-(trifluoromethyl) quinazolin-2 (1H)-one] here?
Its value is ~ 6.7%.

Which “kinetic solubility compared with Compound 1 Freebase Type A” value [4] does the source give for `C#CCNc1nc(=O)n(-c2cccnc2C)c2cc(C(F)(F)F)cc(OC)c12` [Compound 1 citrate salt Type A, 5-methoxy-1-(2-methylpyridin-3-yl)-4-(prop-2-yn-1-ylamino)-7-(trifluoromethyl) quinazolin-2 (1H)-one] here?
Its value is “improved solubility”.

And the “hygroscopicity (in words)” value [2]?
The value was “slightly hygroscopic”.

What about the “water uptake up to 80% RH” value [2] of the same molecule?
Its value is 1.6%.

What does the source list for `C#CCNc1nc(=O)n(-c2cccnc2C)c2cc(C(F)(F)F)cc(OC)c12` [Compound 1 maleate salt Type A, 5-methoxy-1-(2-methylpyridin-3-yl)-4-(prop-2-yn-1-ylamino)-7-(trifluoromethyl) quinazolin-2 (1H)-one]?
kinetic solubility compared with Compound 1 Freebase Type A [4]: improved solubility; kinetic solubility compared with Compound 1 citrate salt Type A [4]: higher solubility; Total impurity ([1]; 40° C./75% RH, 0 d, listed as Maleate Type A): 0.10%; Total impurity ([1]; 40° C./75% RH, 10 d, listed as Maleate Type A): 2.0%; Total impurity ([1]; 60° C., 0 d, listed as Maleate Type A): 0.10%; Total impurity ([1]; 60° C., 5 d, listed as Maleate Type A): 12.6%; hygroscopicity (in words) [2]: non-hygroscopic; water uptake up to 80% RH [2]: ~ 0.07%
